Measured values reported in patent US9765092B2, “Tricyclic piperidine compounds” (ACTELION PHARMACEUTICALS LTD, priority 2013, dated 2017).

Molecular target: human TPH1 (Homo sapiens (Human), UniProt P17752)
Test: Biochemical in vitro assay using fluorescence readout (TPH1 inhibition)
[1] = human TPH1, fluorescence readout
[2] = full length human TPH1, 40 μM L-tryptophan, 15° C., 60 minutes, fluorescence at 540 nm, mean if determined several times

human TPH1, sequence (P17752 whole entry): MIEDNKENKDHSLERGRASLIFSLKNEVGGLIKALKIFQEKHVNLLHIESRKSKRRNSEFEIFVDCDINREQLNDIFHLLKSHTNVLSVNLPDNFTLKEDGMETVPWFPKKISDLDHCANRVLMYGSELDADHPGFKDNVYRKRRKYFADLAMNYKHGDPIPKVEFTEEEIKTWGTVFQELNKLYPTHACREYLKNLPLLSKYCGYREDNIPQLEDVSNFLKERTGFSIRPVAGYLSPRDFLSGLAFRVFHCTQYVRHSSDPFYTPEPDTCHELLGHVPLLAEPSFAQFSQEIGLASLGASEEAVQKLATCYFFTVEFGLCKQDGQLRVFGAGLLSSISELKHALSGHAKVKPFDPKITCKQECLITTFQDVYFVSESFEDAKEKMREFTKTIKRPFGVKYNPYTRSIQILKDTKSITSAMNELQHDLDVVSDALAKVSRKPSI

`Cc1nn2c3c(nc2s1)CCN(C(=O)COc1ccc(N2CCOCC2)nc1Cl)C3c1cc(C(C)(C)O)cs1` (stereo not shown) [Example 1.20.1, 2-((2-chloro-6-morpholinopyridin-3-yl)oxy)-1-(5-(4-(2-hydroxypropan-2-yl)thiophen-2-yl)-2-methyl-7,8-dihydro-[1,3,4]thiadiazolo[2′,3′:2,3]imidazo[4,5-c]pyridin-6(5H)-yl)ethanone] showed an IC50 [1] of 12 nM.

In the case of `COC(=O)c1csc(C2c3c(nc4sc(C)nn34)CCN2C(=O)COc2ccc(N3CCOCC3)nc2Cl)c1` (stereo not shown) [Example 1.21.1, Methyl 5-(6-(2-((2-chloro-6-morpholinopyridin-3-yl)oxy)acetyl)-2-methyl-5,6,7,8-tetrahydro-[1,3,4]thiadiazolo[2′,3′:2,3]imidazo[4,5-c]pyridin-5-yl)thiophene-3-carboxylate], the IC50 [1] is reported as 5 nM.

Work on `Cc1nn2c3c(nc2s1)CCN(C(=O)COc1ccc(N2CCOCC2)nc1Cl)C3c1cnc(N(C)C)s1` (stereo not shown) [Example 1.22.1, 2-((2-Chloro-6-morpholinopyridin-3-yl)oxy)-1-(5-(2-(dimethylamino)-thiazol-5-yl)-2-methyl-7,8-dihydro[1,3,4]thiadiazolo[2′,3′:2,3]imidazo[4,5-c]pyridin-6(5H)-yl)ethanone] yielded an IC50 [2] of 7 nM.

`Cc1nn2c3c(nc2s1)CCN(C(=O)COc1ccc(N(C)C)nc1Cl)C3c1cnc(N(C)C)s1` (stereo not shown) [Example 1.22.2, 2-((2-Chloro-6-(dimethylamino)pyridin-3-yl)oxy)-1-(5-(2-(dimethylamino)thiazol-5-yl)-2-methyl-7,8-dihydro[1,3,4]thiadiazolo[2′,3′:2,3]imidazo[4,5-c]pyridin-6(5H)-yl)ethanone] gave an IC50 [2] of 25 nM.

For `Cc1nn2c3c(nc2s1)CCN(C(=O)COc1ccc(C(F)(F)F)nc1Cl)C3c1cnc(N(C)C)s1` (stereo not shown) [Example 1.22.3, 2-((2-Chloro-6-(trifluoromethyl)pyridin-3-yl)oxy)-1-(5-(2-(dimethylamino)thiazol-5-yl)-2-methyl-7,8-dihydro-[1,3,4]thiadiazolo[2′,3′:2,3]imidazo[4,5-c]pyridin-6(5H)-yl)ethanone], the IC50 [2] was 136 nM.

With `Cc1nn2c3c(nc2s1)CCN(C(=O)COc1cc(F)cnc1Cl)C3c1cnc(N(C)C)s1` (stereo not shown) [Example 1.22.4, 2-((2-Chloro-5-fluoropyridin-3-yl)oxy)-1-(5-(2-(dimethylamino)thiazol-5-yl)-2-methyl-7,8-dihydro-[1,3,4]thiadiazolo[2′,3′:2,3]imidazo[4,5-c]pyridin-6(5H)-yl)ethanone] the IC50 [2] was 79 nM.

Compound `Cc1nn2c3c(nc2s1)CCN(C(=O)COc1ccc(C(F)(F)F)cc1Cl)C3c1cnc(N(C)C)s1` (stereo not shown) [Example 1.22.5, 2-(2-Chloro-4-(trifluoromethyl)phenoxy)-1-(5-(2-(dimethylamino)thiazol-5-yl)-2-methyl-7,8-dihydro-[1,3,4]thiadiazolo[2′,3′:2,3]imidazo[4,5-c]pyridin-6(5H)-yl)ethanone] has an IC50 [2] of 130 nM.

In the case of `Cc1nn2c3c(nc2s1)CCN(C(=O)COc1ccc(NS(C)(=O)=O)nc1Cl)C3c1cnc(N(C)C)s1` (stereo not shown) [Example 1.22.6, N-(6-Chloro-5-(2-(5-(2-(dimethylamino)thiazol-5-yl)-2-methyl-7,8-dihydro-[1,3,4]thia-diazolo[2′,3′:2,3]imidazo[4,5-c]pyridin-6(5H)-yl)-2-oxoethoxy)pyridin-2-yl)methane-sulfonamide], the IC50 [2] is reported as 39 nM.

`Cc1nn2c3c(nc2s1)CCN(C(=O)COc1cccnc1Cl)C3c1cnc(N(C)C)s1` (stereo not shown) [Example 1.22.7, 2-((2-Chloropyridin-3-yl)oxy)-1-(5-(2-(dimethylamino)thiazol-5-yl)-2-methyl-7,8-dihydro[1,3,4]thiadiazolo[2′,3′:2,3]imidazo[4,5-c]pyridin-6(5H)-yl)ethanone] was tested, and the IC50 [2] was 81 nM.

In the case of `Cc1nn2c3c(nc2s1)CCN(C(=O)COc1ccc(N2CC(F)(F)C2)nc1Cl)C3c1cnc(N(C)C)s1` (stereo not shown) [Example 1.22.8, 2-((2-Chloro-6-(3,3-difluoroazetidin-1-yl)pyridin-3-yl)oxy)-1-(5-(2-(dimethylamino)-thiazol-5-yl)-2-methyl-7,8-dihydro-[1,3,4]thiadiazolo[2′,3′:2,3]imidazo[4,5-c]pyridin-6(5H)-yl)ethanone], the IC50 [2] is reported as 19 nM.

For `Cc1nn2c3c(nc2s1)CCN(C(=O)COc1ccc(C(=O)N(C)C)nc1Cl)C3c1cnc(N(C)C)s1` (stereo not shown) [Example 1.22.9, 6-Chloro-5-(2-(5-(2-(dimethylamino)thiazol-5-yl)-2-methyl-7,8-dihydro-[1,3,4]thia-diazolo[2′,3′:2,3]imidazo[4,5-c]pyridin-6(5H)-yl)-2-oxoethoxy)-N,N-dimethylpicolinamide], the IC50 [2] was 9 nM.

`Cc1nn2c3c(nc2s1)CCN(C(=O)COc1ccc(S(N)(=O)=O)cc1C)C3c1sccc1F` (stereo not shown) [Example 1.23.2, 4-(2-(5-(3-fluorothiophen-2-yl)-2-methyl-7,8-dihydro-[1,3,4]thiadiazolo[2′,3′:2,3]imidazo[4,5-c]pyridin-6(5H)-yl)-2-oxoethoxy)-3-methylbenzenesulfonamide] showed an IC50 [1] of 89 nM.

For `Cc1nn2c3c(nc2s1)CCN(C(=O)COc1ccc(C(F)(F)F)nc1Cl)C3c1sccc1F` (stereo not shown) [Example 1.23.3, 2-((2-chloro-6-(trifluoromethyl)pyridin-3-yl)oxy)-1-(5-(3-fluorothiophen-2-yl)-2-methyl-7,8-dihydro-[1,3,4]thiadiazolo [2′,3′:2,3]imidazo[4,5-c]pyridin-6(5H)-yl)ethanone], the IC50 [1] was 20 nM.

Work on `Cc1nn2c3c(nc2s1)CCN(C(=O)COc1ccc(NS(C)(=O)=O)nc1Cl)C3c1sccc1F` (stereo not shown) [Example 1.23.4, N-(6-chloro-5-(2-(5-(3-fluorothiophen-2-yl)-2-methyl-7,8-dihydro-[1,3,4]thiadiazolo[2′,3′:2,3]imidazo[4,5-c]pyridin-6(5H)-yl)-2-oxoethoxy)pyridin-2-yl)methanesulfonamide] yielded an IC50 [1] of 7 nM.

Compound `Cc1nn2c3c(nc2s1)CCN(C(=O)COc1ccc(C(F)(F)F)cc1Cl)C3c1sccc1F` (stereo not shown) [Example 1.23.5, 2-(2-chloro-4-(trifluoromethyl)phenoxy)-1-(5-(3-fluorothiophen-2-yl)-2-methyl-7,8-dihydro-[1,3,4]thiadiazolo[2′,3′:2,3]imidazo[4,5-c]pyridin-6(5H)-yl)ethanone] has an IC50 [1] of 9 nM.

`Cc1nn2c3c(nc2s1)CCN(C(=O)COc1ccc(C(=O)N(C)C)nc1Cl)C3c1sccc1F` (stereo not shown) [Example 1.23.6, 6-chloro-5-(2-(5-(3-fluorothiophen-2-yl)-2-methyl-7,8-dihydro-[1,3,4]thiadiazolo[2′,3′:2,3]imidazo[4,5-c]pyridin-6(5H)-yl)-2-oxoethoxy)-N,N-dimethylpicolinamide] showed an IC50 [1] of 5 nM.

For `Cc1nn2c3c(nc2s1)CCN(C(=O)COc1ccc(N2CC(F)(F)C2)nc1Cl)C3c1sccc1F` (stereo not shown) [Example 1.23.8, 2-((2-chloro-6-(3,3-difluoroazetidin-1-yl)pyridin-3-yl)oxy)-1-(5-(3-fluorothiophen-2-yl)-2-methyl-7,8-dihydro-[1,3,4]thiadiazolo[2′,3′:2,3]imidazo[4,5-c]pyridin-6(5H)-yl)ethanone], the IC50 [1] was 6 nM.

Work on `Cc1nn2c3c(nc2s1)CCN(C(=O)COc1ccc(NS(=O)(=O)C2CC2)nc1Cl)C3c1sccc1F` (stereo not shown) [Example 1.23.9, N-(6-chloro-5-(2-(5-(3-fluorothiophen-2-yl)-2-methyl-7,8-dihydro-[1,3,4]thiadiazolo[2′,3′:2,3]imidazo[4,5-c]pyridin-6(5H)-yl)-2-oxoethoxy)pyridin-2-yl)cyclopropanesulfonamide] yielded an IC50 [1] of 14 nM.

In the case of `CNC(=O)c1ccc(OCC(=O)N2CCc3nc4sc(C)nn4c3C2c2sccc2F)c(Cl)n1` (stereo not shown) [Example 1.23.10, 6-chloro-5-(2-(5-(3-fluorothiophen-2-yl)-2-methyl-7,8-dihydro-[1,3,4]thiadiazolo[2′,3′:2,3]imidazo[4,5-c]pyridin-6(5H)-yl)-2-oxoethoxy)-N-methylpicolinamide], the IC50 [1] is reported as 9 nM.

Work on `Cc1nn2c3c(nc2s1)CCN(C(=O)COc1cnc(N(C)C)nc1Cl)C3c1sccc1F` (stereo not shown) [Example 1.23.11, 2-((4-chloro-2-(dimethylamino)pyrimidin-5-yl)oxy)-1-(5-(3-fluorothiophen-2-yl)-2-methyl-7,8-dihydro-[1,3,4]thiadiazolo[2′,3′:2,3]imidazo[4,5-c]pyridin-6(5H)-yl)ethanone] yielded an IC50 [1] of 6 nM.

For `CCn1nc(C(=O)OC)cc1OCC(=O)N1CCc2nc3sc(C)nn3c2C1c1sccc1F` (stereo not shown) [Example 1.23.12, Methyl 1-ethyl-5-(2-(5-(3-fluorothiophen-2-yl)-2-methyl-7,8-dihydro-[1,3,4]thiadiazolo[2′,3′:2,3]imidazo[4,5-c]pyridin-6(5H)-yl)-2-oxoethoxy)-1H-pyrazole-3-carboxylate], the IC50 [1] was 265 nM.

In the case of `CCn1nc(C(=O)N(C)C)cc1OCC(=O)N1CCc2nc3sc(C)nn3c2C1c1sccc1F` (stereo not shown) [Example 1.23.13, 1-ethyl-5-(2-(5-(3-fluorothiophen-2-yl)-2-methyl-7,8-dihydro-[1,3,4]thiadiazolo[2′,3′:2,3]imidazo[4,5-c]pyridin-6(5H)-yl)-2-oxoethoxy)-N,N-dimethyl-1H-pyrazole-3-carboxamide], the IC50 [1] is reported as 103 nM.

Compound `CCN(CC)C(=O)c1ccc(OCC(=O)N2CCc3nc4sc(C)nn4c3[C@@H]2c2sccc2F)c(Cl)n1` [Example 1.23.14, (R)-6-chloro-N,N-diethyl-5-(2-(5-(3-fluorothiophen-2-yl)-2-methyl-7,8-dihydro-[1,3,4]thiadiazolo[2′,3′:2,3]imidazo[4,5-c]pyridin-6(5H)-yl)-2-oxoethoxy)picolinamide] has an IC50 [1] of 19 nM.

For `Cc1nn2c3c(nc2s1)CCN(C(=O)COc1ccc(-c2ncco2)nc1Cl)[C@H]3c1sccc1F` [Example 1.23.15, (R)-2-((2-chloro-6-(oxazol-2-yl)pyridin-3-yl)oxy)-1-(5-(3-fluorothiophen-2-yl)-2-methyl-7,8-dihydro-[1,3,4]thiadiazolo[2′,3′:2,3]imidazo[4,5-c]pyridin-6(5H)-yl)ethanone], the IC50 [1] was 20 nM.

`Cc1nn2c3c(nc2s1)CCN(C(=O)COc1ccc(N2CCOCC2)nc1Cl)C3c1sc(C(=O)N(C)C)cc1F` (stereo not shown) [Example 1.24.1, 5-(6-(2-((2-chloro-6-morpholinopyridin-3-yl)oxy)acetyl)-2-methyl-5,6,7,8-tetrahydro-[1,3,4]thiadiazolo[2′,3′:2,3]imidazo[4,5-c]pyridin-5-yl)-4-fluoro-N,N-dimethylthiophene-2-carboxamide] showed an IC50 [1] of 2 nM.
